# Measurements as given in patent US20060073530A1 (priority 2001, published 2006).
# “And” between values parts separate entries of the source, which are not always exact repeats. Identical values can stand only once. “Also recorded” adds a separate entry of the source. Like-named read-outs stand apart in the source and are kept apart here.
# How the values were obtained:
# [1] = target: sortase (cleavage of sorting signals at the LPXTG motif) (Staphylococcus aureus, UniProt Q2FV99); type: cell-based, S. aureus OS2
# [2] = target: SrtBΔN (Staphylococcus aureus, UniProt Q2FZE3, E55A/N120I/R216K); type: biochemical, S. aureus; conditions: for SrtBΔN cleavage of NPQTN peptides: incubation of purified enzyme with inhibitor
# [3] = target: SrtADN (Staphylococcus aureus, UniProt Q2FV99); type: biochemical, S. aureus
# [4] = target: sortase (Staphylococcus aureus, UniProt Q2FV99); type: biochemical, staphylococcal
# [5] = test system: staphylococci; type: cell-based, S. aureus OS2
# [6] = test system: Sec-dependent export of P1 precursor (SecA); type: cell-based, S. aureus OS2
# [7] = test system: surface protein SEB-SPA490-524 (sortase acyl-enzyme intermediates); type: cell-based, S. aureus
# [8] = test system: surface protein SEB-MH6-CWS; type: cell-based, S. aureus OS2 and BB270
# [9] = test system: staphylococci; test: Growth of staphylococci in the presence of antibiotics; type: cell-based, S. aureus OS2
# [10] = test system: cell wall sorting of Seb-Spa490-524; type: cell-based, S. aureus OS2
# [11] = test system: bacterial cell wall synthesis; type: cell-based, S. aureus
compound,measurement,setting,value
O[C@H](CS)[C@H](O)CS (racemic) [dithiothreitol],cleavage of sorting signals at the LPXTG motif (cell wall sorting reaction),[1],did not affect the sorting reaction
same,SrtB-mediated cleavage of NPQTN peptide,"[2]; addition of DTT, even in the presence of MTSET",greatly stimulated SrtB-mediated cleavage
same,LPXTG peptide cleavage activity restored,[3]; MTSET-inactivated SrtADN incubated with 10 mM DTT,80%
O=C(O)CN(CCN(CC(=O)O)CC(=O)O)CC(=O)O [EDTA],cleavage of sorting signals at the LPXTG motif (cell wall sorting reaction),[1],"Neither PMSF, which reacts with hydroxyl (Creighton, 1993), nor treatment with the divalent cation chelator EDTA interfered with cell wall sorting"
CS(=O)(=O)SCCS(=O)(=O)[O-].[Na+] [MTSES],cleavage of sorting signals at the LPXTG motif (cell wall sorting reaction),[1],interfered with sorting albeit not as effectively as MTSET
"C[N+](C)(C)CCSS(C)(=O)=O [MTSET, [2-(trimethylammonium)ethyl]methanethiosulfonate]",cleavage of sorting signals at the LPXTG motif (cell wall sorting reaction),[1],sensitive; also recorded: interfered with the cleavage of sorting signals at the LPXTG motif
same,hydroxylaminolysis of LPXTG peptide,[4]; pre-incubation of staphylococcal extracts with MTSET,inhibited
same,incorporation of [35S]methionine by staphylococci,[5],prevented incorporation
same,SrtBΔN cleavage of NPQTN peptides,[2],inhibited
same,Sec-dependent export of P1 precursor,[6],remained unaltered
same,hydroxylaminolysis of LPXTG peptide by SrtADN,[3]; pre-incubation with MTSET,abolished all enzymatic activity
CCN1C(=O)C=CC1=O [N-ethylmaleimide],cleavage of sorting signals at the LPXTG motif (cell wall sorting reaction),[1],did not
"NO [NH2OH, hydroxylamine]",amounts of released surface proteins,[7],increased amounts of released surface proteins
same,surface proteins released into the extra-cellular medium,[7],16.9% and 12.7%
same,fluorescence intensity (LPXTG peptide cleavage),[4]; 0.1 M NH2OH added to staphylococcal extracts,forty fold increase in fluorescence intensity
same,release of SEB-MH6-CWS,[8],caused the release of SEB-MH6-CWS
O=S(=O)(F)Cc1ccccc1 [PMSF],cleavage of sorting signals at the LPXTG motif (cell wall sorting reaction),[1],"Neither PMSF, which reacts with hydroxyl (Creighton, 1993), nor treatment with the divalent cation chelator EDTA interfered with cell wall sorting"
NC(=O)CI [iodoacetamide],cleavage of sorting signals at the LPXTG motif (cell wall sorting reaction),[1],did not
O=C(O)CI [iodoacetate],cleavage of sorting signals at the LPXTG motif (cell wall sorting reaction),[1],did not
OCCS [mercaptoethanol],cleavage of sorting signals at the LPXTG motif (cell wall sorting reaction),[1],did not affect the sorting reaction
CSS(C)(=O)=O [methylmethane thiosulfonate],peptide bond hydrolysis / cleavage of LPETG peptide,"[3]; SrtA DN, absence of the peptidoglycan substrate",inhibited
"O=C(O)c1cc[c]([Hg][OH])cc1 [pHMB, p-hydroxymercuribenzoic acid]",cleavage of sorting signals at the LPXTG motif (cell wall sorting reaction),[1],chemical inhibitors of the sorting reaction; also recorded: displayed an inhibitory effect
same,SrtBΔN cleavage of NPQTN peptides,[2],inhibited
same,SrtAΔN cleavage of LPXTG containing peptides,[3]; incubation of purified enzyme with inhibitor,inhibited
"CC1(C)S[C@@H]2[C@H](NC(=O)Cc3ccccc3)C(=O)N2[C@H]1C(=O)O [penicillin, penicillin G]",growth rate of staphylococci,[9],reduced the growth rate
same,rate of cell wall sorting (P2 precursor accumulation),[10],did not alter the rate of cell wall sorting
CN[C@H](CC(C)C)C(=O)N[C@H]1C(=O)N[C@@H](CC(N)=O)C(=O)N[C@H]2C(=O)N[C@H]3C(=O)N[C@H](C(=O)N[C@H](C(=O)O)c4cc(O)cc(O)c4-c4cc3ccc4O)[C@H](O)c3ccc(c(Cl)c3)Oc3cc2cc(c3O[C@@H]2O[C@H](CO)[C@@H](O)[C@H](O)[C@H]2O[C@H]2C[C@](C)(N)[C@H](O)[C@H](C)O2)Oc2ccc(cc2Cl)[C@H]1O [vancomycin],growth rate of staphylococci,[9],reduced the growth rate
same,rate of cell wall sorting (P2 precursor accumulation),[10],steady accumulation of P2 precursor
same,inhibition of cell wall synthesis,[11],20 fold
same,ratio of incorporated [3H]lysine/[3H]leucine,[11],1.5
moenomycin,growth rate of staphylococci,"[9]; 10 μg/ml antibiotic, compared to mock treated control",reduced the growth rate
same,rate of cell wall sorting (P2 precursor accumulation),[10],"similar, albeit weaker effect"
